Test results taken from a melting point compilation (Tetko et al.; mined from patent text by program, amines drawn as free bases though some values may be those of a salt).

| SMILES | melting point |
| --- | --- |
| C[C@H]1CN(c2c(F)cc3c(=O)c(C(=O)O)cn(CCF)c3c2F)C[C@H]1NC(=O)OC(C)(C)C (relative stereo) | 217 to 219 °C |
| CC1CC2C3CC(F)C4=CC(=O)C=CC4(C)C3C(=O)CC2(C)C1C(=O)COC(=O)C(C)(C)C (configuration not stated) | 226 to 227 °C |
| COC(=O)c1cc(C(C)C)c(OS(=O)(=O)NC(=O)Cc2c(C(C)C)cc(C(C)C)cc2C(C)C)c(C(C)C)c1 | 144 to 146 °C |
| CCOC(=O)C1=C(C(=O)O)CC(C(=O)O)([N+](=O)[O-])C=C1 (configuration not stated) | 189 to 191 °C |
| O=S(=O)(NCCCCn1ccnc1)c1ccc(Br)cc1 | 158 to 159 °C |
| COc1cc(N2CCC(N3CCOCC3)CC2)ccc1-c1nc2c(N[C@H]3[C@@H](C(N)=O)[C@@H]4C=C[C@H]3C4)c(Br)cnc2[nH]1 | 185 to 195 °C |
| NCCNc1ccc(NCCO)cc1[N+](=O)[O-] | 112 °C |
| CC(=O)N1c2cc([N+](=O)[O-])ccc2[C@H]2Cc3ccc([N+](=O)[O-])cc3[C@H]21 (relative stereo) | 264 to 266 °C |
| COc1cc(COc2nn(-c3ccccc3)cc2/C=C/c2coc(C(C)(C)C)n2)ccc1OCc1nc(-c2ccc(CC(=O)O)cc2)oc1C | 104 to 106 °C |
| CCOC(=O)N1CCN(c2cc3nc(C(C)(C)C)sc3cc2[N+](=O)[O-])CC1 | 100 to 102 °C |
| O=C(CSc1ccccn1)C12CC3CC(CC(C3)C1)C2 | 60 to 61 °C |
| COCCOc1cc(NC(=O)OC(C)(C)C)c([N+](=O)[O-])cc1I | 109 to 111 °C |
| CC(C)(C)OC(=O)c1ccc(Cl)c([N+](=O)[O-])c1 | 66 to 67 °C |
| ClCc1cccc2nnsc12 | 78 to 80 °C |
| N#Cc1nn(-c2c(Cl)cc(C(F)(F)F)cc2Cl)cc1-c1ccoc1Cl | 125 °C |
| COc1cccc2c1OC(COS(=O)(=O)c1ccc(C)cc1)CO2 (configuration not stated) | 66 to 68 °C |
| CC(=O)N(c1ccc(C(F)(F)F)cc1)c1nccc(-c2cccc(Cl)c2)n1 | 129 to 130 °C |
| CCCCN(CCCC)C(=S)C(=S)N(CCCC)CCCC | 35 to 38 °C |
| ClC(Cl)=Cc1sc(-c2ccccc2)cc1-c1ccccc1 | 111 to 113 °C |

| SMILES | melting point |
| --- | --- |
| O=C(O)c1cccc(C(=O)c2cc(Cl)cc(C(=O)c3ccccc3O)c2O)c1O | 127 to 130 °C |
| CCN(CC)Cc1nc2cc(OC)c(OC)cc2c(-c2ccc(OC)c(OC)c2)c1C(C)O (configuration not stated) | 144 to 145 °C |
| CCC(=O)Nc1c(C)c(C)c2c(c1C)C(c1ccc(C(C)C)cc1)CO2 (configuration not stated) | 164 to 165 °C |
| CN(C)c1ccc(C(=O)Nc2ccc3ccc(Cl)nc3n2)cc1 | 248 °C |
| COC(=O)c1ccc2c(c1)C=CC(=CCl)CO2 | 72 to 77 °C |
| C1=CC(n2nc(-c3ccc4ccccc4c3)cc2-c2ccccc2)(n2nc(-c3ccc4ccccc4c3)cc2-c2ccccc2)CC=C1c1ccccc1 | 287 °C |
| Nc1nc2c([N+](=O)[O-])cc(OC(F)(F)F)cc2s1 | 260 °C |
| COc1ccc(-n2nc(OC)cc2-c2ccc(OCCNC(N)=S)cc2)cc1 | 142 °C |
| CC=C1C=C(OC)N=C(N)N1 | 119 to 122 °C |
| CCc1cccc2c1C(=O)NS2(=O)=O | 183 to 185 °C |
| COc1ccc(C2(C(=O)O)CCC(=O)CC2)cc1 | 154 to 156 °C |
| COc1ccc(-c2ccncc2OC2SCC(O)C(O)C2O)cc1 (configuration not stated) | 228 °C |
| COc1cc(C(=O)N2Cc3ccc(C(=O)NCc4ccc(Cl)cc4)n3Cc3ccccc32)ccc1-c1ccccc1C | 218 to 219 °C |
| Cc1cnc2c(NC(=O)c3c(Cl)cccc3Cl)cccc2c1Cl | 216 to 227 °C |
| CC(C)OC1=CC2=CCC3C4CCC(=O)C4(C)CCC3C2(C)CC1 (configuration not stated) | 147 to 151 °C |
| C#CCOc1cc(-n2c(=O)nc(N(C)C)n(C)c2=O)c(F)cc1Cl | 61 to 65 °C |
| CCOC(=O)COC(c1cccc(-c2nnc(Nc3ccc(Cl)c(Cl)c3)s2)c1)c1cccc(C(F)(F)F)c1 (configuration not stated) | 135 to 136 °C |
| NS(=O)(=O)c1cccc(-c2cccc(-c3nc(-c4ccc(C(F)(F)F)nc4)cc(C(F)F)n3)c2)c1 | 222 °C |
| CCO/C(=N/OC(C)=O)C1Cc2cc(C(=O)CC)c(O)c(Cl)c2O1 (configuration not stated) | 140 to 142 °C |

| SMILES | melting point |
| --- | --- |
| COCOc1ccc(C=CC(=O)C=Cc2ccc(OCOC)c(OC)c2)cc1OC | 81 to 82 °C |
| O=C(OC1CCCCCC1=O)c1ccccc1 (configuration not stated) | 59 to 60 °C |
| COc1ccc(C2=NN(c3ccc(O)cc3)C(=O)[C@@H]3CC=CC[C@H]23)cc1OC | 111 to 112 °C |
| CC(C)N1C(=O)C(C)(C)N=C(c2ccccc2Cl)c2cc([N+](=O)[O-])ccc21 | 169 to 170 °C |
| O=c1[nH]c2c(Cl)cccc2s1 | 203 to 204 °C |
| NC(=O)N1CCN(c2ccc(O)c(O)c2)C1=O | > 250 °C |
| CCCc1c(OCCCCc2ccc3cc(OCc4ccccc4)c(OCc4ccccc4)cc3c2)ccc(C(=O)OCc2ccccc2)c1O | 87 to 89 °C |
| O=CCCNC(=O)c1cc(Br)c(Br)[nH]1 | 160 to 163 °C |
| O=C(C=Cc1ccsc1)Nc1nnn[nH]1 | 273 to 274 °C |
| CC(C)c1cc(O)n(C)n1 | 120 to 122 °C |
| CNc1nc(Cl)nc2c(SC)ncnc12 | 233 to 234 °C |
| Cc1cc(N)ccc1N1CCOCC1 | 83 to 84 °C |
| Cc1nc(C(O)(c2nc(C)c(C)s2)C(F)(F)F)sc1C | 122 to 124 °C |
| Cc1cccc(-c2n[nH]cc2Cl)c1 | 109 °C |
| COc1ccc(Oc2cnc(N)nc2N)c(C(C)C)c1 | 170 to 171 °C |
| C[C@H](C#Cc1sccc1Cc1ccc(F)cc1)N(O)C(N)=O | 99 to 100 °C |
| FC(F)(F)n1cc(Br)cn1 | 4 °C |
| O=[N+]([O-])c1ccc(F)cc1OCC(F)(F)F | 44 to 45 °C |
| CC(C)C(C)(C)N1N=C([O-])O[NH2+]1 | 38 °C |

Other lines, results leading:

| melting point | SMILES |
| --- | --- |
| 110 °C | CCCCCCOc1ccc(-c2nccc(-c3cccc(F)c3F)n2)cn1 |
| 107 to 108 °C | CCCc1c(OCCCOc2cccc3c2CCCC3)ccc2c1OC(CCC=O)(CCC=O)CC2=O |
| 142 to 143 °C | CCCCC(O)(COc1ccc(C(=O)O)c(O)c1)c1ccc2c(c1)C(C)(C)CCC2(C)C (configuration not stated) |
| 120 to 124 °C | CCCCc1ncc(CC(Cc2ccccc2)C(=O)O)n1Cc1ccc(C(=O)O)cc1 (configuration not stated) |
| 140 °C | CC(C)(C)CC(C)(C)NCC(O)COc1ccccc1C(=O)Nc1cccc2[nH]ccc12 (configuration not stated) |
| 151 to 152 °C | CNC(=O)C(Cc1ccc(OCCc2nc(-c3ccccc3)oc2C)cc1)C(=O)OC (configuration not stated) |
| 118 to 120 °C | c1ccc(CCN2CCN(c3n[nH]c4ccccc34)CC2)cc1 |
| 194 to 195 °C | CN(CC(=O)O)C(=O)CCc1cccc(-c2nc(=O)c3ccccc3s2)n1 |
| 98 to 112 °C | FC(F)(F)c1ccc(C2=NNCC2c2ccccc2)cc1 (configuration not stated) |
| 194 °C | CN(C)c1nc(NCc2ccc(NC(=O)C3CCN(Cc4ccccc4)CC3)cc2)c2ccc(I)cc2n1 |
| 92 to 94 °C | COc1cc(O)c(C(=O)c2ccccc2)c(Cl)c1 |
| 123 °C | CS(=O)(=O)Nc1cc(C=C2c3ccccc3CCc3ccccc32)ccc1O |
| 188 to 189 °C | Clc1nc(-c2ccccn2)[nH]c1I |
| 116 °C | Cc1cc(-n2ccnc2)c2cccc(OCc3c(Cl)ccc(S(=O)(=O)N4CCC[C@H]4C(=O)NCc4ccccc4)c3Cl)c2n1 |
| 88 to 100 °C | O=C1N(CC2CN(Cc3ccccc3)CCO2)c2ccccc2C12COc1cc3c(cc12)OCCO3 (configuration not stated) |
| 71 to 72 °C | OCCn1nccc1-c1ccc(Oc2ccc(F)cc2)cc1 |
| 202 to 203 °C | NC(=O)Cc1nc(-c2ccc(Cl)cc2)sc1-c1ccccc1 |
| 138 to 140 °C | Cc1ccc(F)cc1C(=O)N1Cc2cccnc2Nc2ccccc21 |
| 158 to 160 °C | CN(C(=O)CN1C(=O)C(NC(=O)Nc2cccc(N)c2)N=C(CN2CCOCC2)c2ccccc21)c1ccccc1 (configuration not stated) |
| 206 to 208 °C | COc1cc(Nc2c(C#N)cnc3cc(-c4ccc(CN5CCN(C)CC5)s4)ccc23)c(Cl)cc1Cl |

| melting point | SMILES |
| --- | --- |
| 77 to 79 °C | Cc1ccc(N(C)C(=O)Cc2ccccc2)s1 |
| 125 to 126 °C | CSc1ccc(NC(=O)CCCCCSc2nc3ccccc3o2)c(SC)n1 |
| 92 to 94 °C | COc1ccsc1C1CCN(C[C@H](Cc2ccccc2)NC(=O)C2CCCCC2)CC1 |
| 222 to 223 °C | O=C(O)Cc1ccc2nc(Nc3ccccc3)oc2c1 |
| 93 to 94 °C | CS(=O)(=O)OCCCc1ccccc1OCc1coc(/C=C/c2ccccc2)n1 |
| 135 to 140 °C | O=C(OCc1ccccc1)C1Cc2ccsc2CN1Cc1ccccc1 (configuration not stated) |
| 194 to 196 °C | O=c1nc(-c2ccc(NCc3ccccc3)nc2)sc2ccccc12 |
| 250 to 255 °C | CC(C)c1nc2c([nH]1)C(=O)N1CCN=C1N2Cc1ccccc1Cl |
| 188 to 189 °C | COC(=O)c1sc(C)c2ncn(Cc3ccc(-c4ccccc4-c4nnn[nH]4)cc3)c12 |
| 192 to 193 °C | COc1cc(Nc2c(C#N)cnc3cc(-c4cccc5ccccc45)ccc23)c(Cl)cc1Cl |
| 236 to 238 °C | O=c1[nH]c2ccccc2n1CCCN1CCN(c2n[nH]c3cc(F)ccc23)CC1 |
| 251 °C | COc1cc2c(cc1-c1cc(F)ccc1F)NC(=O)CC(c1cccc(C#N)c1)=N2 |
| 130 to 131 °C | CCc1cn2ccccc2c1S(=O)(=O)c1ccc(OCCCn2ccnc2)cc1 |
| 149 to 150 °C | c1cc(-c2ccoc2)cc(-n2cnc3cc(-c4ccoc4)ccc32)c1 |
| 206 to 208 °C | O=C(O)c1cccc(-c2nc(-c3ccc(C(F)(F)F)cc3)co2)c1 |
| 104 to 109 °C | CC(O)C1C(=O)N2C(C(=O)OCc3ccccc3)=C(S(=O)c3ccccc3)CC12 (configuration not stated) |
| 141 to 142 °C | CC(C)Cn1c(CNC(=O)OC(C)(C)C)c(-c2ccccc2)c2cc(OCc3ccccc3)ccc2c1=O |
| 111 to 112 °C | CC(C)c1ccc2nc3ccc(C(=O)OCCCc4cccnc4)cc3c(=O)n2c1 |
| 121 to 123 °C | CN(C)Cc1nc(CO)nn1-c1ccc(Cl)cc1C(O)c1ccccc1 (configuration not stated) |
| 211 to 213 °C | C#CCN1CCN(c2c(Cl)cc3c(=O)c(C(=O)O)cn4c3c2CCC4C)CC1 (configuration not stated) |
